Several values for one entry are separate records, joined by “and”; a condition that tells them apart may be missing. Equal entries are not always repeated.
Columns and labels:
Format in all cases: cell-based
SCD1 = target: T1, SCD1 (Homo sapiens, UniProt O00767); test: Growth inhibition of humanized yeast strain expressing SCD1 as sole desaturase; settings: for SCD1 % Max Inhibition / IC50: humanized yeast strain expressing SCD1
T1 construct: host or cells: S. cerevisiae ole1Δ strain (W303 pdr1Δ pdr3Δ background), plasmid pRS316 with TDH3 promoter and CYC1 terminator
T1 sequence (O00767 1-359): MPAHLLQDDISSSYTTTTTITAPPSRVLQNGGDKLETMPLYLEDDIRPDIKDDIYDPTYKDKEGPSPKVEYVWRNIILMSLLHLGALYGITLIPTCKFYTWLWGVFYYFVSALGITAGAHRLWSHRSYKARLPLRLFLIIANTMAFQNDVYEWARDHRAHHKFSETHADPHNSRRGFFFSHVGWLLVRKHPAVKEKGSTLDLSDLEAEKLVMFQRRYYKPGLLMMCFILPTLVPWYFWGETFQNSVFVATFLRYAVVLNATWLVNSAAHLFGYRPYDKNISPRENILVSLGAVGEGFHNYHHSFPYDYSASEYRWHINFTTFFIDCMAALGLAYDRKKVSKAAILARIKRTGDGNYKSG
Method in brief: (§1)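 Measured by optical density at 600 nm, growth of desaturase-dependent yeast (OLE1 deleted; human SCD1, human SCD5 or yeast Ole1 supplied from plasmid) was scored after 24 h (Ole1) or 40 h (SCD1, SCD5) at 30° C. in galactose media lacking uracil with DMSO-delivered compound.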

Ole1 = target: T2, Ole1 (Saccharomyces cerevisiae, UniProt P21147); test: Growth inhibition of yeast strain expressing Ole1 as sole desaturase; settings: for IC50 / OLE1 % Max Inhibition: yeast strain expressing Ole1 as sole desaturase
T2 construct: expressed in transfected cells; host or cells: S. cerevisiae ole1Δ strain (W303 pdr1Δ pdr3Δ background), plasmid pRS316 with TDH3 promoter and CYC1 terminator
T2 sequence (P21147 1-510): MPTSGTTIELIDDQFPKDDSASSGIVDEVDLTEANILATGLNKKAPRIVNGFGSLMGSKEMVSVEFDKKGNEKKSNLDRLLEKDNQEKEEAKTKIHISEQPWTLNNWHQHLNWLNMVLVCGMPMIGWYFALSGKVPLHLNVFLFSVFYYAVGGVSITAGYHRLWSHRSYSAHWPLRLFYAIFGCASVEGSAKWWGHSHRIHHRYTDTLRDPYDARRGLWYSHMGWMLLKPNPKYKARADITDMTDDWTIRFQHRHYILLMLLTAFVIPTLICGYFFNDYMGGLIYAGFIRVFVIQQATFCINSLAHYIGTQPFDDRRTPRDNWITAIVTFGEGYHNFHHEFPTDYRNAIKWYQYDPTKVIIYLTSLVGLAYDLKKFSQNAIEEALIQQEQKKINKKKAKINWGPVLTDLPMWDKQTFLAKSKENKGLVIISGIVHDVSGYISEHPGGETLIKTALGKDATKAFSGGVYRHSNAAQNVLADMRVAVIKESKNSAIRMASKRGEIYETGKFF
Method in brief: as §1

SCD5 = target: T3, SCD5 (Homo sapiens, UniProt Q86SK9); test: Growth inhibition of humanized yeast strain expressing SCD5 as sole desaturase; settings: for IC50 / SCD5 % Max Inhibition: humanized yeast strain expressing SCD5
T3 construct: host or cells: S. cerevisiae ole1Δ strain (W303 pdr1Δ pdr3Δ background), plasmid pRS316 with TDH3 promoter and CYC1 terminator
T3 sequence (Q86SK9 1-330): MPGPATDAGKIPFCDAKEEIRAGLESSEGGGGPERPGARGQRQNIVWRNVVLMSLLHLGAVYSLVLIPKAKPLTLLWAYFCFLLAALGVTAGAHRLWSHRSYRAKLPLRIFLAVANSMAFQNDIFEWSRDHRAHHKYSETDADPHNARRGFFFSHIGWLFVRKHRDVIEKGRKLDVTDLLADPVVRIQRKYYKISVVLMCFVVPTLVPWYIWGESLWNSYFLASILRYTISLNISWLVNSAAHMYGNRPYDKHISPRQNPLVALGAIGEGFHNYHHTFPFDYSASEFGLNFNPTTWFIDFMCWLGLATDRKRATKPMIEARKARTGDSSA
Method in brief: as §1

Compound | half-maximal inhibitory concentration (IC50) (SCD1; SCD1 humanized strain, FIG. 6) | growth of yeast expressing OLE1 in presence of inhibitor (Ole1; FIG. 6) | half-maximal inhibitory concentration (IC50) (SCD5; SCD5 humanized strain, FIG. 6) | SCD1 % Max Inhibition (SCD1) | IC50 (Ole1) | OLE1 % Max Inhibition (Ole1) | IC50 (SCD5) | SCD5 % Max Inhibition (SCD5) | IC50 (SCD1)
CNC(=O)c1cccc(NC(=O)N2CCC(Oc3ccccc3Cl)CC2)c1 [Compound A939572, reference compound] | low nanomolar | resistant | low nanomolar |  |  |  |  |  | 
CCN(Cc1nc(-c2ccc(OC)c(OC)c2)no1)C(=O)Cc1ccccc1 [Compound 492] |  |  |  | 83.92% | > 45 µM | 106.45% | > 45 µM | 75.64% | 
O=C(C1CC(=O)N(c2ccccc2)C1)N1CCC(c2nc(-c3ccc4nonc4c3)no2)CC1 (stereo not shown) [Compound 164] |  |  |  | 102.20% | > 45 µM | 96.96% | > 45 µM | 73.90% | > 45 µM
CCn1nc(C)c2ccc(-c3noc(C4CCN(C(=O)OC(C)(C)C)CC4)n3)cc21 [Compound 301] |  |  |  | 96.2% | > 45 µM | 99.4% | > 45 µM | 21.0% | 
Cc1nn(C)c2cc(-c3noc(C4CCN(C(=O)[C@H]5CC(=O)N(c6ccccc6)C5)C(C)C4)n3)ccc12 (stereo partly shown) [Compound 240] |  |  |  | 66.85% | > 45 µM | 4.30% | > 45 µM | 12.95% | > 45 µM
CCN(Cc1nc(-c2ccc(OC)c(OC)c2)no1)C(=O)Cc1cccc2ccccc12 [Compound 157] |  |  |  | 80.54% | > 45 µM | 91.55% | > 45 µM | 72.54% | > 45 µM
Cn1c(=O)n(C)c2cc(-c3noc(C4CCN(C(=O)CNC(=O)c5ccncc5)CC4)n3)ccc21 [Compound 238] |  |  |  | 70.06% | > 45 µM | 4.93% | 30 µM | 69.63% | > 45 µM
CCN(Cc1nc(-c2ccc3c(c2)N(CC)C(=O)CO3)no1)C(=O)Cc1cccc2ccccc12 [Compound 494] |  |  |  | 79.67% | > 45 µM | 92.28% | > 45 µM | 73.76% | 
COc1ccc(-c2noc(CCNC(=O)CNC(=O)c3ccccc3)n2)cc1OC [Compound 484] |  |  |  | 75.84% | > 45 µM | 92.09% | > 45 µM | 81.46% | 
O=C(C1CC(=O)N(c2ccccc2)C1)N1CCC(c2nc(N3CC4(COC4)C3)no2)CC1 (stereo not shown) [Compound 231] |  |  |  | 80.00% | > 45 µM | 29.53% | > 45 µM | 3.11% | > 45 µM
COc1ccc(-c2noc(C3CCN(C(=O)c4cccc(C(C)C)c4)CC3)n2)cc1OC [Compound 167] |  |  |  | 6.11% | 38.4 µM | 57.28% | > 45 µM | 2.38% | > 45 µM
Cc1nn(C)c2cc(-c3noc(N4CCN(C(=O)c5cccc(F)c5)CC4)n3)ccc12 [Compound 270] |  |  |  | 82.42% | 41.8 µM | 63.00% | > 45 µM | 12.30% | 
Cc1ncc2ccc(-c3noc(C4CCN(C(=O)CNC(=O)c5ccccc5)CC4)n3)cn12 [Compound 215] |  |  |  | 88.23% | > 45 µM | 48.68% | > 45 µM | 78.96% | > 45 µM
CC(C)n1ncc2ccc(-c3noc(C4CCN(C(=O)OC(C)(C)C)CC4)n3)cc21 [Compound 265] |  |  |  | 76.74% and 54.38% | > 45 µM | 103.04% and 83.99% | > 45 µM | 10.96% and 3.97% | ≥ 45 µM
Cc1ccc(N2C[C@@H](C(=O)N3CCC(c4nc(-c5ccc6c(C)nn(C)c6c5)no4)CC3)CC2=O)nc1 [Compound 302] |  |  |  | 71.1% and 50.17% | > 45 µM | 6.7% and 5.26% | > 45 µM | 9.4% and 10.64% | 36.1 µM and ≥ 45 µM
Cc1nn(C)c2cc(-c3noc(C4(C)CCN(C(=O)CNC(=O)c5ccccc5)CC4)n3)ccc12 [Compound 227] |  |  |  | 63.76% | > 45 µM | 1.24% | > 45 µM | 6.17% | 38.3 µM
CC(C)c1ccc(C(=O)N2CCC(c3nc(C(=O)Nc4ccnn4C)no3)CC2)cc1 [Compound 287] |  |  |  | 72.51% | > 45 µM | 93.89% | > 45 µM | 66.81% | 
Cc1nn(C)c2cc(-c3noc(C4CCN(C(=O)c5ccccc5)CC4)n3)ccc12 [Compound 280] |  |  |  | 11.48% | > 45 µM | 17.18% | > 45 µM | 8.86% | 
Cc1nn(C)c2cc(-c3noc(C4CCN(C(=O)[C@H]5CC(=O)N(c6cccc(C#N)c6)C5)CC4)n3)ccc12 [Compound 305] |  |  |  | 73.2% and 55.27% | > 45 µM | 6.6% and 4.23% | > 45 µM |  | ≥ 45 µM
CC(C)n1ncc2ccc(-c3noc(C4CCN(C(=O)CNC(=O)c5ccccc5)CC4)n3)cc21 [Compound 171] |  |  |  | 74.21% | > 45 µM | 6.77% | > 45 µM | −0.14% | 40.4 µM

— patent publication US11873298B2, “Compounds and uses thereof” (JANSSEN PHARMACEUTICA NV, priority 2017, dated 2024)
